Results from US20100323950A1, “USE OF BETA-MELANOTROPIN AS A THERAPEUTIC AGENT, EG FOR THE TREATMENT OF AIDS OR ALZHEIMER” (priority 2007, published 2010).

What was measured:
MRSA = details: 5 micrograms per ml
Pseudomonas aeruginosa = details: 5 micrograms per ml
Streptococcus pneumoniae = details: 5 micrograms per ml
in vitro = details: human, MRC-5 cells (human embryonal lung fibroblasts)
[1] = Cytotoxicity (dye uptake cell viability) in HepG2-2.2.15 cells; details: human

CSCC[C@H](NC(=O)[C@H](CCCNC(=N)N)NC(=O)[C@H](Cc1ccc(O)cc1)NC(=O)[C@@H]1CCCN1C(=O)CNC(=O)[C@H](CCC(=O)O)NC(=O)[C@H](CC(=O)O)NC(=O)[C@H](CCCCN)NC(=O)[C@H](CCCCN)NC(=O)[C@H](CCC(=O)O)NC(=O)[C@H](C)N)C(=O)N[C@@H](CCC(=O)O)C(=O)N[C@@H](Cc1c[nH]cn1)C(=O)N[C@@H](Cc1ccccc1)C(=O)N[C@@H](CCCNC(=N)N)C(=O)N[C@@H](Cc1c[nH]c2ccccc12)C(=O)NCC(=O)N[C@@H](CO)C(=O)N1CCC[C@H]1C(=O)N1CCC[C@H]1C(=O)N[C@@H](CCCCN)C(=O)N[C@@H](CC(=O)O)C(=O)O [Beta MSH]
% inhibition (MRSA): 0.0% | % inhibition (Pseudomonas aeruginosa): 0.0% | % inhibition (Streptococcus pneumoniae): 0.0% | viability at 144 h (in vitro): 100% | viability at 144 h, 10 micrograms per ml [1]: 100%
